pIC50, pKi: −log10 of the molar value. Read-outs that look alike come from different tables or passages of the source.
How the values were obtained:
[1] = Oxidation of boronic acids by hydrogen peroxide, continuous UV-absorbance assay; assay type: physicochemical; details: for kmonoanion (rel) / kmonoanion: experimental; for kmonoanion (rel): relative to PBA; for kmonoanion: second-order rate constant for oxidation of monoanionic tetrahedral state; for kobs: second-order rate constant of oxidation by hydrogen peroxide, physiological pH
Source text: Hydrogen peroxide is known to be the major reactive oxygen species in humans. The oxidation of phenylboronic acids by aqueous hydrogen peroxide yields a phenol and boric acid. […] The oxidation rates were first-order with respect to hydrogen peroxide and each boronic acid. The ensuing second-order rate constants varied with pH and were half-maximal for PBA and 2-HMPBA when pH=pKa. Oxidation rates increase in a pH-dependent manner after and before a pH-independent regime (FIG. 2). This observation is consistent with the existence of two pH-independent rate constants, k1 and k2. Whereas the oxidation rates of PBA and 2-HMPBA at physiological pH are similar to those for biological thiols, the comparative stability of CPBA to oxidation is unexpected (Table 1).
For PBA, 2-HMPBA, and 2-CPBA, the transition from a neutral trigonal state to a monoanionic tetrahedral state occurs when the pH surpasses the pKa (FIG. 3). […] The oxaborolone is differentiated by its existence as a monoanionic tetrahedral species above pH 1. The second-order rate constants for the oxidation for the monoanionic tetrahedral states of PBA, 2-HMPBA, 2-CPBA, and 2-CMPBA ((2-carboxymethyl)-phenylboronic acid) are listed in Table 2.

[2] = Affinity for saccharides, 1H-NMR titration; assay type: binding
Source text: (§1) PBA and 2-HMPBA are employed often for their ability to form esters with saccharides. As the affinity of boronic acids for saccharides is generally greatest near their pKa value, the low pKa1 of 2-CPBA portends a low affinity. The results of ^1H-NMR titration experiments with D-fructose, D-glucose, and N-acetylneuraminic acid (Neu5Ac) are consistent with this expectation (Table 3).

ribonuclease A (RNase A) = target: T1, ribonuclease A (RNase A) (Bos taurus, UniProt P61823); assay: Inhibition of catalysis by ribonuclease A; assay type: biochemical; details: pH 6.0, substrate 6-FAM-(dA)rU(dA)2-6-TAMRA
T1 sequence (P61823 27-150): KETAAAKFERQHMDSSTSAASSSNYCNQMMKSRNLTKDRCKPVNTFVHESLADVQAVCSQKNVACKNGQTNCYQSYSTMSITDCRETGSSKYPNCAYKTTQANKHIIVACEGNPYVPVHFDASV
Experimental: The catalytic activity of ribonuclease A (RNase A) was assayed using 6-FAM-(dA)rU(dA)2-6-TAMRA as a substrate (Kelemen, B. R.; et al. Nucleic Acids Res. 1999, 27, 3696-3701). Assays were performed in 50 mM MES-NaOH buffer, pH 6.0, containing NaCl (100 mM) and RNase A (1 pM) in 200-μL solutions in a black, flat-bottomed 96-well plate and with a Tecan M1000 plate reader. An aqueous solution of 2-CPBA was prepared by dilution from a 500 mM stock that had its pH adjusted to that of the assay buffer. Initial velocities were measured from <5% turnover. Velocities were fitted to the 4-parameter logistic equation using Prism software from GraphPad. Uninhibited velocities were used to constrain the top parameter.

[3] = Affinity for saccharides, overall comparison; assay type: binding
Source text: as §1

[4] = target: T2, calf intestinal phosphatase (CIP) (Bos taurus, UniProt P19111); assay: Inhibition of calf intestinal phosphatase, 4-nitrophenyl phosphate substrate; assay type: biochemical; details: pH 7.5, substrate 1.0 mM
T2 construct: purchased Promega (Fitchburg, WI)
T2 sequence (P19111 20-506): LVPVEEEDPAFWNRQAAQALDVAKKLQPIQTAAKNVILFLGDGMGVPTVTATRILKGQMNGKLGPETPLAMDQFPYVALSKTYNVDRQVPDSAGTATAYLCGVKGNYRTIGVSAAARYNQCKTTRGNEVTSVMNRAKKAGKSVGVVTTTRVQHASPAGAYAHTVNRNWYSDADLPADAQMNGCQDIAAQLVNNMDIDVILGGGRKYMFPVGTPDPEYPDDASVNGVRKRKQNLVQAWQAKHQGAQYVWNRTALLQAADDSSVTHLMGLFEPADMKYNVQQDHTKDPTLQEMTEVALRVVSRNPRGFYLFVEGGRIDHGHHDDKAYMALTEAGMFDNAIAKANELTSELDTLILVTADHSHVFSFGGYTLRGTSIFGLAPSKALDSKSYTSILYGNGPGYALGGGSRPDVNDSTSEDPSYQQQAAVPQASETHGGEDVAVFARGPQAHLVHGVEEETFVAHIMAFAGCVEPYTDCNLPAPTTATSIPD
Experimental: (§2) 2-CPBA was tested as an inhibitor of pig liver esterase (PLE). This test used 4-nitrophenyl acetate (PNPA) as a substrate. In addition, 2-CPBA was tested as an inhibitor of calf intestinal phosphatase (CIP). This test used 4-nitrophenyl phosphate. Substrates and PLE (15 units/mg) were obtained from Sigma-Aldrich (St. Louis, MO) as dry powders. CIP was obtained from Promega (Fitchburg, WI) as a solution (1 unit/μL). The hydrolysis of the two chromogenic substrates was monitored with a Tecan M1000 plate reader by measuring the absorbance of the 4-nitrophenol product at a wavelength of 405 nm. Assays were performed in a buffer of 20 mM Tris-HCl buffer, pH 7.5, in a clear, flat bottomed 96-well plate in 200-μL volumes. Solutions for CIP assays contained enzyme (0.003 units/μL) and substrate (1.0 mM). Solutions for PLE assays contained enzyme (0.01 units/mL) and substrate (1.0 mM). Both enzymes were assayed for inhibition by adding 2-CPBA (to a concentration of 0.78-100 mM) from a 250 mM stock solution that had its pH adjusted to that of the assay buffer. Initial velocities were measured by calculating ΔA405 nm over time. Velocities were fitted to the 4-parameter logistic equation with Prism software from GraphPad (San Diego, CA). No enzyme and uninhibited velocities were used to constrain the top and bottom parameters. Values of Ki were 80 mM for CIP and 10 mM for PLE.

pig liver esterase (PLE) = target: T3, pig liver esterase (PLE) (Sus scrofa, UniProt Q29550); assay: Inhibition of pig liver esterase, 4-nitrophenyl acetate substrate; assay type: biochemical; details: pH 7.5, substrate 1.0 mM
T3 sequence (Q29550 19-566): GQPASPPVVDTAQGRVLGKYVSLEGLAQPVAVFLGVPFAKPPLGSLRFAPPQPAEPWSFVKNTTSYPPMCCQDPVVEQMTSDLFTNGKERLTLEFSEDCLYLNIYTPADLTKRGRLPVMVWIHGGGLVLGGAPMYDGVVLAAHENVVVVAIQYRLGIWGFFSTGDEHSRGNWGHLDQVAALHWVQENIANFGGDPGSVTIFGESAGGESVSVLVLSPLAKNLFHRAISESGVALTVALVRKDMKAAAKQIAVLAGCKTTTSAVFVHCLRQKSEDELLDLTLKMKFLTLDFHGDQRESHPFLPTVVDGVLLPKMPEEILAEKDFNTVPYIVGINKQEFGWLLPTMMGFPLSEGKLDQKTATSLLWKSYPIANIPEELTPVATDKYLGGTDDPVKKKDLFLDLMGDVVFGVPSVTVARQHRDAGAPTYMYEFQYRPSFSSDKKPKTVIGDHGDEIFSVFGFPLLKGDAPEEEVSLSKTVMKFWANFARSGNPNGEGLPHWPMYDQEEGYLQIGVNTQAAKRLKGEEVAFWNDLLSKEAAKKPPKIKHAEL
Experimental: as §2

[5] = oxidation of biological thiols, physiological pH; marked with footnote a; cited from earlier work
Transthyretin (TTR) = target: T4, Transthyretin (TTR) (Homo sapiens, UniProt P02766); assay: Inhibition of transthyretin fibril formation, light-scattering at 400 nm; assay type: biochemical; details: pH 4.4, 96-h incubation at 37° C.
T4 construct: made in house
Experimental: TTR was expressed and purified as previously reported (Smith, T. P., et al, J. Med. Chem., 2017, 60, 7820-7834). Inhibition of fibril formation was assayed as previously reported (Smith, et al.). Briefly, TTR (7.2 μM) was incubated with varying ratios of kinetic stabilizers (BOL or tafamidis) in 10 mM sodium phosphate buffer, pH 7.6, containing potassium chloride (100 mM) for 30 min at 37° C. Solutions were 2-fold diluted with 100 mM sodium acetate buffer, pH 4.4, containing potassium chloride (100 mM). Quadruplicate samples were plated in a clear 96-well plate. Fibril formation was assessed by measuring light-scattering at 400 nm immediately following acidification and after a 96-h incubation at 37° C. Data were analyzed with equation 1 below by comparing the change in light-scattering over the incubation with a control containing the protein and no inhibitor. The standard deviation of measurements was propagated through calculation in equation 1.

SMILES | kmonoanion (rel) [1] | kmonoanion [1] | kobs [1] | D-fructose, Ka [2] | D-glucose, Ka [2] | Neu5Ac, Ka [2] | kobs [5] | other results
O=C(O)Cc1ccccc1B(O)O [Compound 2-CMPBA, (2-carboxymethyl)-phenylboronic acid] | 0.00088 | 0.041 M⁻¹ s⁻¹ | 0.041 M⁻¹ s⁻¹ |  |  |  |  | 
O=C(O)c1ccccc1B(O)O [Compound 2-CPBA, 2-carboxyphenylboronic acid] | 0.0000035 | 0.00016 M⁻¹ s⁻¹ | 0.00015 M⁻¹ s⁻¹ | 23 ± 2 M⁻¹ | 1.7 ± 0.1 M⁻¹ | 6.0 ± 0.5 M⁻¹ |  | pIC50 (ribonuclease A (RNase A)): 1.57; loss in affinity for saccharides versus 2-HMPBA ([3]; versus 2-HMPBA): about 13 fold; loss in affinity for saccharides versus PBA ([3]; versus PBA): about 4 fold; pKi [4]: 1.10; pKi (pig liver esterase (PLE)): 2.00
OCc1ccccc1B(O)O [Compound 2-HMPBA, (2-hydroxymethyl)phenylboronic acid] | 0.10 | 4.8 M⁻¹ s⁻¹ | 2.4 M⁻¹ s⁻¹ | 336 ± 43 M⁻¹ | 28 ± 4 M⁻¹ | 43 ± 5 M⁻¹ |  | 
N[C@@H](CS)C(=O)O [Cysteine] |  |  |  |  |  |  | 2.9 M⁻¹ s⁻¹ | 
N[C@@H](CCC(=O)N[C@@H](CS)C(=O)NCC(=O)O)C(=O)O [Glutathione] |  |  |  |  |  |  | 0.89 M⁻¹ s⁻¹ | 
CC(=O)N[C@@H](CS)C(=O)O [N-Acetylcysteine] |  |  |  |  |  |  | 0.16 M⁻¹ s⁻¹ | 
OB(O)c1ccccc1 [PBA, phenylboronic acid] | 1 | 46 M⁻¹ s⁻¹ | 2.4 M⁻¹ s⁻¹ | 128 ± 20 M⁻¹ | 5 ± 1 M⁻¹ | 13 ± 1 M⁻¹ |  | 
O=C(O)c1ccc2nc(-c3cc(Cl)cc(Cl)c3)oc2c1 [tafamidis] |  |  |  |  |  |  |  | % Fibril formation (Transthyretin (TTR); TTR:Compound ratio 1:1): 29 ± 5%; % Fibril formation (Transthyretin (TTR); TTR:Compound ratio 1:2): 1 ± 5%
